From US8556817B2, “Non-invasive methods for determining the cardiovascular status of an individual” (priority 2005, dated 2013)
Marks after values point to notes of the source that are not given here.

Experiments:
[1] = Carotid artery wall layer thickness by non-invasive high-frequency ultrasound, postmenopausal estrogen users vs age-matched nonusers; assay type: in vivo, women
Procedure: Any artery within the focus depth of the selected measuring equipment that can give information of the separate thicknesses of the artery intima layer and optionally the artery media layer may be used. In one embodiment, the thickness of the artery intima layer and optionally the artery media layer is measured in a superficial artery. Examples of superficial arteries include, but are not limited to, carotid, femoral, radialis, cubital, temporal, popliteal, or dorsalis pedis arteries. Depending on the artery which is selected for measurement, one skilled in the art will appreciate the various non-invasive locations on the individual in which the artery layer thickness may be measured. In one embodiment, the artery is a carotid artery and is examined in front of the sternocleidomastoid muscle, with the individual in the sitting position.
Before beginning the ultrasound imaging, individuals rest quietly for at least 15 minutes. Carotid total wall thickness and the thickness of the individual artery layers are assessed noninvasively using high-resolution ultrasonographic equipment (Osteoson® Minhorst GmbH, Meudt, Germany), fitted with a broad-banded probe with 25 MHz center frequency. The method is validated for the estimation of total artery wall thickness and media layer thickness in non-atherosclerotic superficial arteries in pigs. Briefly, the scan converter enables the image to be frozen at a selected scan-time (2 sec) and the unit permits two-dimensional data acquisition, presenting the results as scans A and B. About 128 lines of echo data are detected as an A-echo signal, sampled by an eight-bit analog-to-digital converter, converted by scanning to a rectangular format and viewed as B-mode images on a 32-colour scale monitor. Image resolution as defined by the product manual is approximately 0.07 mm axially along the ultrasonographic beam and the depth of focus is in the range of 13.5 to 14.5 mm in front of the tip of the probe. The system recognizes objects of about 0.015 mm in size, and the software-driven cursors permit a minimal digital display of 0.02 mm.
The left common carotid artery (LCCA) is examined at the point of the strongest pulse, in front of the sternocleidomastoid muscle, with the individuals sitting in an upright position and looking straight ahead. The three-layer image show the pulsating artery near wall and the artery lumen. Ten B scans (point estimates) are carried out and measurements of the thickness of the whole arterial wall and its layers are performed off-line. Means of the ten measurements are calculated and used in the analysis. The total thickness of the carotid wall is measured from the leading edge of the adventitia to the far edge of the intima. Measurements of the adventitia and intima are made using only the brightest echoes from leading edge to far edge, and the thickness of the media layer is measured as the distance between the two brightest echoes. The coefficient of variation (CV %), calculated from double estimates (based on the mean of 5 measurements each) in 20 subjects, is about 2.4% for total carotid wall thickness, about 4.2% for media thickness and about 8% for intima thickness. The values for artery wall layer given in this study are mean values based on 10 or more measurements. All ultrasonographic assessments are performed by the same investigator, who is blinded to the clinical data of the study subjects.

[2] = Femoral artery wall layer thickness by non-invasive high-frequency ultrasound, postmenopausal estrogen users vs age-matched nonusers; assay type: in vivo, women
[3] = estrogen users vs age-matched nonusers
[4] = estrogen users vs age-matched nonusers, pair-wise
[5] = postmenopausal estrogen users (n = 17), mean ± SD

For Estrogen, the “Intima thickness, % difference” value [1, 3] was −25%, the “Intima/Media ratio, % difference” value [1, 3] was −54% and the “Media thickness, % difference” value [1, 3] was “+74%”. For the same substance, the “Thickness of Intima + Media, % difference” value [1, 3] was “+43%”, the “Total wall thickness, % difference” value [1, 3] was “+35%” and the “Intima thickness, Mean difference ± SD” value [1, 4] was −0.033 ± 0.04 mm. The “Intima/Media ratio, Mean difference ± SD” value [1, 4] was −0.25 ± 0.15, the “Media thickness, Mean difference ± SD” value [1, 4] was 0.26 ± 0.22 mm and the “Thickness of Intima + Media, Mean difference ± SD” value [1, 4] was 0.22 ± 0.23 mm. For the same substance, the “Total wall thickness, Mean difference ± SD” value [1, 4] was 0.23 ± 0.23 mm, the Intima thickness [1, 5] was 0.12 ± 0.02 mm and the Intima/Media ratio [1, 5] was 0.21 ± 0.0629^a. For the same substance, the Media thickness [1, 5] was 0.61 ± 0.19 mm, the “Thickness of Intima + Media” value [1, 5] was 0.73 ± 0.19 mm and the Total wall thickness [1, 5] was 0.84 ± 0.19 mm. For the same substance, the “Intima thickness, % difference” value [2, 3] was −23%, the “Intima/Media ratio, % difference” value [2, 3] was −50% and the “Media thickness, % difference” value [2, 3] was “+51%”. The “Thickness of Intima + Media, % difference” value [2, 3] was “+38%”, the “Total wall thickness, % difference” value [2, 3] was “+25%” and the “Intima thickness, Mean difference ± SD” value [2, 4] was −0.030 ± 0.04 mm. For the same substance, the “Intima/Media ratio, Mean difference ± SD” value [2, 4] was −0.14 ± 0.13, the “Media thickness, Mean difference ± SD” value [2, 4] was 0.27 ± 0.30 mm and the “Thickness of Intima + Media, Mean difference ± SD” value [2, 4] was 0.24 ± 0.33 mm. For the same substance, the “Total wall thickness, Mean difference ± SD” value [2, 4] was 0.18 ± 0.40 mm, the Intima thickness [2, 5] was 0.095 ± 0.02 mm and the Intima/Media ratio [2, 5] was 0.14 ± 0.06^0.055. The Media thickness [2, 5] was 0.77 ± 0.29^a mm, the “Thickness of Intima + Media” value [2, 5] was 0.87 ± 0.30^a mm and the Total wall thickness [2, 5] was 0.91 ± 0.37^b mm.
